Reference: the NIST ThermoML archive (doi:10.1016/j.jct.2017.07.013)

How the values were obtained:
[1] = 101.3 kPa, Liquid; for speed of sound: Frequency=3 MHz, Single path-length method; for mass density: Vibrating tube method
[2] = refractive index (Na D-line) (dimensionless); details: 101.3 kPa, Liquid, Standard Abbe refractometry
[3] = refractive index (Na D-line) (dimensionless); xn = mol fraction of the nth substance listed; details: 101.3 kPa, Liquid, Standard Abbe refractometry, x2 = 0
[4] = xn = mol fraction of the nth substance listed; details: 101.3 kPa, Liquid, x2 = 0; for speed of sound: Frequency=3 MHz, Single path-length method; for mass density: Vibrating tube method

CCCC[n+]1ccn(C)c1.O=S(=O)([N-]S(=O)(=O)C(F)(F)F)C(F)(F)F
Details | mass density, [1] [kg/m3] | refractive index, [2] | speed of sound, [1] [m/s]
303.15 K | 1428.9 | 1.4245 | 1216.8
308.15 K | 1424.1 | 1.4231 | 1205.8
313.15 K | 1419.4 | 1.421 | 1195
318.15 K | 1414.6 | 1.4195 | 1184.2
323.15 K | 1409.9 | 1.4173 | 1173.6

COC(=O)OC [dimethyl carbonate]
Details | mass density, [1] [kg/m3] | refractive index, [2] | speed of sound, [1] [m/s]
303.15 K | 1056.8 | 1.3648 | 1177.3
308.15 K | 1050.2 | 1.3629 | 1155.6
313.15 K | 1043.5 | 1.3626 | 1134.2
318.15 K | 1036.8 | 1.3601 | 1113.1
323.15 K | 1030 | 1.3586 | 1092.2

COC(=O)OC [dimethyl carbonate] + CCCC[n+]1ccn(C)c1.O=S(=O)([N-]S(=O)(=O)C(F)(F)F)C(F)(F)F
Details | mass density, [4] [kg/m3] | refractive index, [3] | speed of sound, [4] [m/s]
303.15 K | 1056.8 | 1.3648 | 1177.3
308.15 K | 1050.2 | 1.3629 | 1155.6
313.15 K | 1043.5 | 1.3626 | 1134.2
318.15 K | 1036.8 | 1.3601 | 1113.1
323.15 K | 1030 | 1.3586 | 1092.2
